Assay results published in patent US10231960B2, “Methylphenidate-prodrugs, processes of making and using the same” (KemPharm, Inc., priority 2011, dated 2019).
In brackets after ≈: the same amount, converted by molar mass.

How the values were obtained:
[1] = Oral PK in rats: plasma methylphenidate released from conjugates vs unconjugated methylphenidate (LC-MS/MS); conditions: oral gavage; for Tmax: Tmax (Methylphenidate)
From the text: Exemplary prodrug conjugates of the present technology were synthesized as described above. The oral plasma concentrations of methylphenidate released from nicotinate-CH2OCO-MPH, phosphate-CH2OCO-MPH, gallate-CH2OCO-MPH, lactate-CH2OCO-MPH, MPH-CO2CH2-nicotinoyl-Asp, MPH-CO2CH2-nicotinoyl-Val, MPH-CO2CH2-nicotinoyl-Gly-Ala, Val-6-aminohexanoate-CH2OCO-MPH, MPH-CO2CH2-nicotinamide, 6-aminohexanoate-CH2OCO-MPH, MPH-CO2CH2-nicotinoyl-O^tBu, MPH-CO2CH2-nicotinate, MPH-CO2CH2-nicotinoyl-OEL MPH-CO2CH2-pyridine, isonicotinate-CH2OCO-MPH and phosphate-(p-salicylate)-CH2OCO-MPH were compared with unconjugated methylphenidate after oral administration in rats. Rats were dosed with oral solutions of the conjugated prodrugs in an amount equivalent to 2 mg/kg of methylphenidate free base and compared to an equimolar solution of unconjugated methylphenidate hydrochloride.
The plasma concentrations of methylphenidate were measured by LC-MS/MS over time.
The dosing vehicles for the PK experiments are as follows: FIG. 13—10% Tween in water. FIGS. 14 and 15—water. FIG. 16—conjugate in 50% PEG-400 in water; control: water. FIG. 17—50% PEG-400 in water. FIG. 18—10% Tween in water. FIGS. 19-27—water. FIGS. 28 and 29—phosphate buffered saline (PBS). FIG. 30—10% Tween in water.

[2] = Intranasal PK in rats: plasma methylphenidate released from conjugates vs unconjugated methylphenidate; assay type: in vivo; conditions: rat, inhaled or intranasal, unconjugated methylphenidate comparator, dosed intranasally
From the text: (§1) FIGS. 14 and 15—water. […] FIG. 17—50% PEG-400 in water. FIG. 18—10% Tween in water. FIGS. 19-27—water. FIGS. 28 and 29—phosphate buffered saline (PBS). FIG. 30—10% Tween in water.

[3] = Intravenous PK in rats: plasma methylphenidate released from conjugates vs unconjugated methylphenidate; assay type: in vivo; conditions: rat, unconjugated methylphenidate comparator, dosed intravenously
From the text: as §1

[4] = Water solubility at ambient temperature; assay type: physicochemical
Protocol: The water solubility of phosphate-CH2OCO-methylphenidate and unconjugated methylphenidate was determined at ambient temperature and the results are found in Table 5.

[5] = water, at 32° C.; cited from earlier work
[6] = conjugate relative to unconjugated methylphenidate
[7] = plasma methylphenidate released from conjugate, equivalent to 2 mg/kg methylphenidate free base
[8] = read-out: AUC0-4 h (Methylphenidate)
[9] = conjugate relative to methylphenidate hydrochloride from combined data of six studies
[10] = calculated from combined data of three studies (footnote a)

## COC(=O)C(c1ccccc1)C1CCCCN1C(=O)OCOC(=O)CCCCCN (centres unmarked) [6-Aminohexanoate-CH2OCO-MPH, (6-aminohexanoyloxy)methyl methylphenidate-1-carboxylate]
[1]; [6]
  AUC-%: 82%
  Cmax-%: 109%
  Tmax-%: 88%
[1]; [7]
  AUC0-4 h (Conjugate): 145.6 ng·h/mL
  Cmax (Conjugate): 173.5 ng/mL
  Tmax (Conjugate): 21 min

## COC(=O)C(c1ccccc1)C1CCCCN1C(=O)OCOC(=O)C(C)O (centres unmarked) [Lactate-CH2OCO-MPH, lactate-CH2OCO-MPH]
[1]; [6]
  AUC-%: 73%
  Cmax-%: 75%
  Tmax-%: 120%
[1]; [7]
  AUC0-4 h (Conjugate): 132.3 ng·h/mL
  Cmax (Conjugate): 122.5 ng/mL
  Tmax (Conjugate): 18 min

## COC(=O)C(c1ccccc1)C1CCCCN1 (centres unmarked) [Methylphenidate, methyl phenyl(piperidin-2-yl)acetate]
[1]; rat, plasma, po, 2 mg/kg, AUC0-4 h (Methylphenidate), methylphenidate hydrochloride, combined data of six studies (footnotes a, b)
  AUC(0-t): 106 ng·h/mL
[1]; rat, plasma, po, 2 mg/kg, Cmax (Methylphenidate), methylphenidate hydrochloride, combined data of six studies (footnotes a, b)
  Cmax: 114 ng/mL
[1]; rat, plasma, po, 2 mg/kg, methylphenidate hydrochloride, combined data of six studies (footnotes a, b)
  Tmax: 17 min
[1]; rat, plasma, po, 2 mg/kg, unconjugated methylphenidate hydrochloride comparator of the same row, equimolar
  Tmax: 15 min
[2]
  Cmax: 2210 ng/mL
  Tmax: 6.96 min
[2]; [8]
  AUC(0-t): 1050 ng·h/mL
[3]
  Cmax: 296 ng/mL
  Tmax: 31 min
[3]; [8]
  AUC(0-t): 320 ng·h/mL
[4]; water
  solubility: 169 mg/mL (≈ 724 mM)
[5]
  Solubility data found in the literature: 191 mg/mL (≈ 819 mM)

## COC(=O)C(c1ccccc1)C1CCCCN1C(=O)OCOP(=O)(O)O (centres unmarked) [Phosphate-CH2OCO-MPH, phosphate-CH2OCO-MPH]
[1]; [9]
  AUC-%: 146%
  Cmax-%: 140%
  Tmax-%: 88%
[1]; [6]
  AUC-%: 185%
  Cmax-%: 144%
  Tmax-%: 100%
[1]; [10]
  AUC0-4 h (Conjugate): 154.5 ng·h/mL
  Cmax (Conjugate): 158.9 ng/mL
  Tmax (Conjugate): 15 min
[1]; [7]
  AUC0-4 h (Conjugate): 110.8 ng·h/mL
  Cmax (Conjugate): 110.8 ng/mL
  Tmax (Conjugate): 15 min
[4]
  Solubility in Water: 432 mg/mL
[4]; vs unconjugated methylphenidate hydrochloride
  Water solubility relative to the unconjugated form: about 2.5 times

## COC(=O)C(c1ccccc1)C1CCCCN1C(=O)OCOC(=O)CCCCCNC(=O)C(N)C(C)C (centres unmarked) [Val-6-aminohexanoate-CH2OCO-MPH]
[1]; [6]
  AUC-%: 58%
  Cmax-%: 59%
  Tmax-%: 83%
[1]; [7]
  AUC0-4 h (Conjugate): 44.9 ng·h/mL
  Cmax (Conjugate): 52.7 ng/mL
  Tmax (Conjugate): 15 min
